Results on 3 molecules are retold here after patent US12257325B2, “Chelating platform for delivery of radionuclides” (priority 2016, dated 2025).

The conditions of data set [1]: cited from earlier work.
Data set [2] in a line: Incremental spectrophotometric titrations: protonation constants of 3,4,3-LI(CAM). The class given is physicochemical. To be noted: I=0.1 M (KCl), T=25° C.; lower values = higher acidity. The procedure:
(§1) Solution Thermodynamics. All titrant solutions were degassed by boiling for 1 h while being purged under Ar. Carbonate-free 0.1 M KOH was prepared from concentrate (J.T Baker Dilut-It) and was standardized by titrating against 0.1 M potassium hydrogen phthalate (99.95%, Sigma Aldrich). Solutions of 0.1 M HCl were similarly prepared and were standardized by titrating against TRIS (99.9%, J.T. Baker). The glass electrode (Metrohm-Micro Combi-response to [H+]) used for the pH measurements was calibrated at 25.0° C. and at an ionic strength of 0.1 M (KCl) before each potentiometric or spectrophotometric titration. The calibration data were analyzed using the program GLEE (Gans & O'Sullivan, Talanta, 2000, 51 (1): 33-37) to refine for the E° and slope. […]
(§2) Incremental Spectrophotometric Titrations. […] For the 3,4,3-LI(CAM) protonation (and Eu(III)-3,4,3-LI(CAM) complexes), titrations were performed with an initial concentration of 50 μM of 3,4,3-LI(CAM) (and 50 μM of Eu(III)) resulting in absorbance values included between 0 and 1.0 throughout the titration. […]
(§3) Data Treatment. […] All metal and chelator concentrations were held at estimated values determined from the volume of standardized stock solutions. All species formed with 3,4,3-LI(CAM) were considered to have significant absorbance to be observed in the UV-vis spectra and were therefore included in the refinement process. […]

Data set [3] has as its target T1, recombinant wild-type Scn (Homo sapiens, UniProt P80188).
T1 construct: made in house
Description: Fluorescence Quenching Binding Assay. Here is the method:
Metal, Chelator, and Protein Working Solutions. The trivalent lanthanide Ln(III) working stock solutions were prepared in standardized 0.1 M HCl. A Zr(IV) stock solution was prepared by dissolving ZrCl4 in 3.0 M H2SO4, to prevent hydrolysis. The metal salt ZrCl4 was handled and stored in a glovebox kept under inert atmosphere. The Zr(IV) stock solution was standardized against EDTA, with xylene orange as the indicator (Welcher, F. J. The analytical uses of ethylenediamine tetraacetic acid; 1958). A Th(IV) stock solution was prepared in 0.1 M H2SO4. […]
Fluorescence Quenching Binding Assay. […] Fluorescence quenching of Scn was measured after each titrant addition on a HORIBA Jobin Yvon IBH FluoroLog-3 spectrofluorimeter, with 3 nm slit band-pass, using the characteristic excitation and emission wavelengths λexc=280 and λem=320-360 nm. The intrinsic fluorescence in proteins is generally attributed to tryptophan residues; two residues W31 and W79 are found in the proximity of the Scn binding site. Fluorescence values were corrected for dilution upon addition of titrant. Fluorescence data were analyzed by nonlinear regression analysis of fluorescence response versus chelator concentration using a one-site binding model as described elsewhere. […]

Data set [4] is described as follows: Incremental spectrophotometric titrations: stability constants of Zr(IV) complexes (DTPA competition). The class given is physicochemical. To be noted: 1 equivalent of Zr(IV); calculated speciation diagram. Here is the method: as §1, §2, §3
Data set [5] is described as follows: Incremental spectrophotometric titrations: stability constants of Th(IV) complexes (DTPA competition). The format is physicochemical. To be noted: 1 equivalent of Th(IV); calculated speciation diagram. The procedure: as §1, §2, §3
Data set [6] in a line: Incremental spectrophotometric titrations: stability constants of Eu(III) complexes. The class given is physicochemical. The conditions noted are these: 1 equivalent of Eu(III); calculated speciation diagram. Here is the method:
as §1, §2, §3

Data set [7] in a line: In Vivo Biodistribution Assay with ^238Pu tracer. The arrangement: species or system CD-1 mice. To be noted: mice, intravenous. Here is the method:
In Vivo Biodistribution Assay. All procedures and protocols used in the presented in vivo studies were reviewed and approved by the Institutional Animal Care and Use Committee at Lawrence Berkeley National Laboratory and performed in AAALAC accredited facilities. The animals used were adult female CD-1 mice (180±7 days old, 40.8±5.8 g). Solutions of ^238Pu complexed by 3,4,3-LI(CAM) and Scn:3,4,3-LI(CAM) were prepared in situ at molar ratios protein:ligand:^238Pu of 0:100:1 and 100:100:1, respectively by mixing and incubating the appropriate quantities of ^238Pu(NO3)4, ligand, and protein in phosphate-buffered saline (PBS) to reach a ^238Pu concentration of 12 ng L-1. Protein solutions were washed thrice with PBS using 10 kDa molecular weight cut-off membrane-based centrifugal filters, and all solutions were filter-sterilized (0.22 μm) prior to injection. Under isoflurane anesthesia, groups of three normally fed mice were injected intravenously with 0.2 mL of a complex solution (370 Bq per mouse). After injection of the ^238Pu tracer, mice were weighed, identified, and housed in groups of three in plastic stock cages lined with a 0.5 cm layer of highly absorbent low-ash pelleted cellulose bedding (Alpha-dri) for separation of urine and feces. Mice were given water and food ad libitum and euthanized at 4, 24, or 48 h after tracer injection. All experiments using ^238Pu tracers were managed as metabolic balance studies, in which tissues and excreta were analyzed for ^238Pu by liquid scintillation counting on a Perkin Elmer Packard Tri-Carb model B4430. The methods of sample collection, preparation, radioactivity measurements, and data reduction have been published previously (Sturzbecher-Hoehne, et al., Dalton Transactions, 2011, 40 (33): 8340-8346: Kullgren, et al., Toxicology mechanisms and methods, 2013, 23 (1), 18-26; Durbin, et al., Health physics 2000, 78 (5): 511-521). Those methods provide quantitative measurements of radioactivity in biological samples; material recoveries averaged 99% of the amount injected in these experiments.
Biodistribution Evaluation. To evaluate the in vivo retention and excretion patterns of M(IV)-3,4,3-LI(CAM) complexes and their Scn adducts, ^238Pu(IV) was used as a radiolabel. ^238Pu(IV) likely behaves similarly to Th(IV) and Zr(IV) (the ionic radius of Pu^4+ is included between those of Th^4+ and Zr^4+) (Sturzbecher-Hoehne, et al., Inorganic Chemistry, 2015, 54 (7): 3462-3468) but allows for more accurate metabolic balance experiments due to its relatively long radioactive half-life (87.8 yr) and low specific activity (0.63 TBq/g), compared to the therapeutic ^227Th (18.68 d; 1139 TBq/g) and imaging ^89Zr (78.42 h; 16,630 TBq/g) isotopes. […] In this in vivo stability experiment, ^238Pu-ligand complex solutions were formed in situ (Ligand:Pu and Scn:Chelator:Pu ratios of 100:1 and 100:100:1, respectively) and administered intravenously. Mice were euthanized 4, 24, or 48 h after the metal injection, and tissues and excreta were radioanalyzed for ^238Pu content (FIG. 14).

With `O=C(NCCCN(CCCCN(CCCNC(=O)c1cccc(=O)n1O)C(=O)c1cccc(=O)n1O)C(=O)c1cccc(=O)n1O)c1cccc(=O)n1O` [3,4,3-LI(1,2-HOPO)], in data set [1] (4+ metals, very acidic conditions), the “pH at which 4+ metal complexes are formed” value was less than 0. For the same molecule, in data set [1] (Eu(III), same conditions), the “pH at which Eu(III) species appear” value is 1.
As for `O=C(NCCCN(CCCCN(CCCNC(=O)c1cccc(O)c1O)C(=O)c1cccc(O)c1O)C(=O)c1cccc(O)c1O)c1cccc(O)c1O` [3,4,3-LI(CAM)], the “overall acidity ΣpKa5-8” value in data set [2] is 45.4. In addition, in data set [3], the Kd came to 1.2 ± 0.4 nM. Moreover, the “pH at which complexes start forming” value in data set [4] and in data set [5] was roughly 3 in each case. Also, the “pH at which complexation starts” value in data set [6] is 5.

B1: Scn:[Pu^IV(3,43-LI(CAM))]: siderocalin adduct of the ^238Pu(IV) complex of 3,4,3-LI(CAM), Scn:chelator:Pu 100:100:1 (conjugate, UniProt P80188 21-198, looked up)
Neutrophil …: QDSTSDLIPAPPLSKVPLQQNFQDNQFQGKWYVVGLAGNAILREDKDPQKMYATIYELKEDKSYNVTSVLFRKKKCDYWIRTFVPGCQPGEFTLGNIKSYPGLTSYLVRVVSTNYNQHAMVFFKKVSQNREYFKITLYGRTKELTSELKENFIRFSKSLGLPENHIVFPVPIDQCIDG
modifications: bound Pu(IV)-3,4,3-LI(CAM) complex
Turning to B1, the in vivo stability result in data set [7] is given as “high in vivo stability”. Further, the “injected ^238Pu excreted by 48 hours” value in data set [7] (370 Bq per mouse, 48 h) is reported as 30%. Also, in data set [7] (4 h after administration), the “^238Pu found in the kidneys” value is “up to 52%”. Besides, the “^238Pu in urine versus feces” value in data set [7] (all time points (4, 24, 48 h)) is “more ^238Pu was found in the urine than in the feces”. The “retention and excretion pattern (kidney vs. liver)” value in data set [7] (early time points) was “favors elimination through the renal system”.

The Kd is the concentration at which binding is half-saturated.
